Test results reported in ChEMBL document CHEMBL1154133, “Pestalazines and pestalamides, bioactive metabolites from the plant pathogenic fungus Pestalotiopsis theae” (J Nat Prod, 2008).
In brackets after ≈: the same amount, converted by molar mass. Counter-ions that a name gives are not always drawn.

How the values were obtained:
Aspergillus fumigatus [1] = experiment: Antifungal activity against Aspergillus fumigatus ATCC 10894 by microplate reader assay; format: functional, organism-based
Aspergillus fumigatus [2] = experiment: Antifungal activity against Aspergillus fumigatus ATCC 10894 by alamar blue assay; format: functional
[3] = test system: Human immunodeficiency virus 1; experiment: Antiviral activity against HIV1 LAI infected in human C8166 cells assessed as inhibition of viral replication by ELISA; format: functional, organism-based; details: Human immunodeficiency virus 1, LAI
[4] = Cytotoxicity against human C8166 cells after 4 days by MTT assay; format: cell-based

SMILES: C[C@@H](CC(=O)NC(=O)c1coc(Cc2ccccc2)cc1=O)C(=O)O [PESTALAMIDE A]
- IC50 (Aspergillus fumigatus [1]): 1.5 µM
- MIC (Aspergillus fumigatus [2]): 57.8 µM (≈ 19.8 µg/mL)
- EC50 [3]: 64.2 µM
- CC50 at 96 h [4]: > 100 µM

SMILES: CC(C)(C)NC(=O)[C@@H]1CN(Cc2cccnc2)CCN1C[C@@H](O)C[C@@H](Cc1ccccc1)C(=O)N[C@H]1c2ccccc2C[C@H]1O [INDINAVIR SULFATE]
- EC50 [3]: 0.0055 µM

SMILES: OC(Cn1cncn1)(Cn1cncn1)c1ccc(F)cc1F [FLUCONAZOLE]
- MIC (Aspergillus fumigatus [2]): 163 µM (≈ 50 µg/mL)
